Test results as given in paper PMC2532997, “Methoxylation enhances stilbene bioactivity in Caenorhabditis elegans” (BMC Pharmacology, 2008).

System: gld-1(q485) germline tumors
Test: Germline tumor growth assay (DAPI-stained tumor area)
Assay type: in vivo, Caenorhabditis elegans
Conditions: 100 μM dose, four days treatment
Experimental: To assess the effects of methoxylation on antitumor activity in vivo, tumor area was measured in gld-1(q485) adults treated for four days with either resveratrol trimethylether, desoxyrhapontigenin or pterostilbene, which are methoxylated and toxic to adults, or resveratrol, which is hydroxylated and nontoxic. As controls, germline tumor area was also measured in animals treated with carrier only (ethanol) or with 5-fluoro-2'-deoxyuradine (FUDR), a thymidylate synthetase inhibitor that blocks cell proliferation. […] After four days of treatment, animals were collected and germline tumors were visualized by DAPI staining to visualize germcell nuclei. Because the level of DAPI staining was not quantitative between animals, we DAPI signal intensity was not used as a measure of tumor size. Rather, tumor size was directly measured as the area of the DAPI-stained gonad.
Resveratrol and picetannol were obtained from commercial sources (Sigma-Aldrich, Inc. and Calbiochem-Novobiochem Corp., respectively). The methoxylated stilbenes pinostilbene, desoxyrhapontigenin, 3-hydroxy-5,4'-dimethoxystilbene and pterostilbene (Figure 1) were synthesized by partial methylation of trans-resveratrol as previously reported. The methoxylated stilbenes were purified by preparative layer chromatography (Merck Silica gel 60 F254; EMD Chemicals Inc., Gibbstown, NJ) using the developing solvent chloroform:methanol (96:4) with 1% formic acid. The Rf values for pterostilbene, 3-hydroxy-5,4'-dimethoxystilbene, pinostilbene and desoxyrhapontigenin are 0.61, 0.57, 0.28, and 0.20, respectively. These stilbenes were identified from their ^1H-NMR spectra (Bruker 400 MHz; Bruker, Billerica, MA). All stilbenes were dissolved in ethanol to 25 mg/mL before use. 5-Fluoro-deoxyuracil (Sigma Chemical Co.) was dissolved to 1 mg/mL in sterile water and stored frozen at -20°C until use. For treating C. elegans adults, each compound was added in a 200 μL volume to the top of a 1-day old bacterial lawn grown on NGM medium to final concentrations as indicated. Compounds were allowed 2 hours to diffuse through the agar medium before animals were added.
The gld-1(q485) mutation causes a defect in oocyte development that results in growth of germline tumors that fill the somatic gonad, eventually leading to the animal's death. To examine the effects of the stilbenes on gld-1(q485) germline tumors, day 0 adults were placed on stilbene-containing medium in the presence of OP50 bacteria as food source. After 4 days at 20°C, animals were fixed in methanol and germcell nuclei were visualized by staining with DAPI. Images were collected with the entire animal in view using the 4× objective on a Nikon E800 microscope equipped with a Hamamatsu Orca ER CCD camera using OpenLab imaging software. NIH Image J software was used to measure germline tumor growth in treated and untreated animals. Tumor area was measured by outlining the entire DAPI-stained tumor.

SMILES: COc1ccc(/C=C/c2cc(OC)cc(OC)c2)cc1 [Resveratrol-trimethylether, resveratrol-trimethylether]
- effect on tumor size (in words): consistent reductions in tumor size
